Results as given in patent publication US8008291B2 (Mimetica Pty Ltd, priority 2008, dated 2011).

Target: T1, human MC5R (hMC5R) (Homo sapiens, UniProt P33032)
T1 construct: purchased Perkin Elmer RBXMC5M400UA
Test: Human MC5R radioligand binding assay (membranes, [125I] NDP-MSH displacement)
Settings: hMC5R binding; tested as trifluoroacetate or hydrochloride salts, or free bases; read-out: MC5R radioligand IC50
Outline: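 Frozen human MC5R membranes incubated with test compound and in-house iodogen-labeled, HPLC-purified [125I]NDP-MSH for 1 hr at 37° C. Binding measured as displacement of the radioligand.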

T1 sequence (P33032 whole entry): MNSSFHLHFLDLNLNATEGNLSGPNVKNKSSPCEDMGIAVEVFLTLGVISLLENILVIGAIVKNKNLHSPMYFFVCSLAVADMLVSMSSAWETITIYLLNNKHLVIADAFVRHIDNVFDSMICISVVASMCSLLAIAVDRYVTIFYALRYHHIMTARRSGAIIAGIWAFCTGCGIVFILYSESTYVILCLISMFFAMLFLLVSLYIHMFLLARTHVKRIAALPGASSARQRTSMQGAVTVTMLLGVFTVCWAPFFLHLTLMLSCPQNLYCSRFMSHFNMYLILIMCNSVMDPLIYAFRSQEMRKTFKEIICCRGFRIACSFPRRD

Compound | IC50
CCC(C)(CC)CN1CC[C@@H](CNC(=O)c2ccc3cc(Cl)ccc3c2)N[C@@H](CCN)C1=O [Compound 512, N-(((3S,5S)-3-(2-aminoethyl)-1-(2-ethyl-2-methylbutyl)-2-oxo-1,4-diazepan-5-yl)methyl)-6-chloro-2-naphthamide] | < 1000 nM
CCC(C)(CC)CN1CC[C@@H](CNC(=O)c2ccc3cc(Cl)ccc3c2)N[C@@H](CCN2CCCCC2)C1=O [Compound 513, 6-chloro-N-(((3S,5S)-1-(2-ethyl-2-methylbutyl)-2-oxo-3-(2-(piperidin-1-yl)-ethyl)-1,4-diazepan-5-yl)methyl)-2-naphthamide] | < 100 nM
O=C(NC[C@@H]1CCN(CC(c2ccccc2)c2ccccc2)C(=O)[C@H](CCN2CCOCC2)N1)c1ccc2cc(Cl)ccc2c1 [Compound 514, 6-chloro-N-(((3S,5S)-1-(2,2-diphenylethyl)-3-(2-morpholinoethyl)-2-oxo-1,4-diazepan-5-yl)methyl)-2-naphthamide] | < 100 nM
CC[C@H](CN1CC[C@@H](CNC(=O)c2ccc3cc(Cl)ccc3c2)N[C@@H](CCN2CCOCC2)C1=O)c1ccccc1 [Compound 515, 6-chloro-N-(((3S,5S)-3-(2-morpholinoethyl)-2-oxo-1-((S)-2-phenylbutyl)-1,4-diazepan-5-yl)methyl)-2-naphthamide] | < 100 nM
CC[C@H](CN1CC[C@@H](CNC(=O)NCc2ccc(Cl)cc2)N[C@@H](CCN2CCCCC2)C1=O)c1ccccc1 [Compound 518] | < 1000 nM
CC[C@H](CN1CC[C@@H](CN(Cc2ccc(Cl)c(Cl)c2)C(C)=O)N[C@@H](CCN2CCCCC2)C1=O)c1ccccc1 [Compound 519] | < 10000 nM
CCC(C)(CC)CN1CC[C@@H](CNC(=O)c2ccc(Cl)c(Cl)c2)N[C@@H](CCN)C1=O [Compound 520, N-(((3S,5S)-3-(2-aminoethyl)-1-(2-ethyl-2-methylbutyl)-2-oxo-1,4-diazepan-5-yl)methyl)-3,4-dichlorobenzamide] | < 10000 nM
CCC(C)(CC)CN1CC[C@@H](CNC(=O)c2ccc(Cl)c(Cl)c2)N[C@@H](CCN2CCCCC2)C1=O [Compound 521, 3,4-dichloro-N-(((3S,5S)-1-(2-ethyl-2-methylbutyl)-2-oxo-3-(2-(piperidin-1-yl)ethyl)-1,4-diazepan-5-yl)methyl)benzamide] | < 100 nM
O=C(NC[C@@H]1CCN(Cc2cc(Cl)cc(Cl)c2Cl)C(=O)[C@H](CCN2CCCCC2)N1)c1ccc2cc(Cl)ccc2c1 [Compound 522, 6-chloro-N-(((3S,5S)-2-oxo-3-(2-(piperidin-1-yl)ethyl)-1-(2,3,5-trichlorobenzyl)-1,4-diazepan-5-yl)methyl)-2-naphthamide] | < 100 nM
CC[C@H](CN1CC[C@@H](CNC(=O)c2ccc3cc(Cl)ccc3c2)N[C@@H](CCNS(=O)(=O)C(C)C)C1=O)c1ccccc1 [Compound 523, 6-chloro-N-(((3S,5S)-3-(2-(1-methylethylsulfonamido)ethyl)-2-oxo-1-((S)-2-phenylbutyl)-1,4-diazepan-5-yl)methyl)-2-naphthamide] | < 100 nM
CCCCOC(=O)NCC[C@@H]1N[C@H](CNC(=O)c2ccc3cc(Cl)ccc3c2)CCN(C[C@@H](CC)c2ccccc2)C1=O [Compound 524, butyl 2-((2S,7S)-7-((6-chloro-2-naphthamido)methyl)-3-oxo-4-((S)-2-phenylbutyl)-1,4-diazepan-2-yl)ethylcarbamate] | < 1000 nM
CC[C@H](CN1CCC(CNC(=O)c2ccc3cc(Cl)ccc3c2)NC(C2CCN(C(C)C)CC2)C1=O)c1ccccc1 (stereo partly drawn) [Compound 525, (S)-6-chloro-N-((3-(1-isopropylpiperidin-4-yl)-2-oxo-1-(2-phenylbutyl)-1,4-diazepan-5-yl)methyl)-2-naphthamide] | < 100 nM
CC[C@@H](CN1CC[C@@H](CNC(=O)c2ccc3cc(Cl)ccc3c2)N[C@@H](CCN2CCCCC2)C1=O)c1ccccc1 [Compound 526, 6-chloro-N-(((3S,5S)-2-oxo-1-((R)-2-phenylbutyl)-3-(2-(piperidin-1-yl)ethyl)-1,4-diazepan-5-yl)methyl)-2-naphthamide] | < 10 nM
